# According to patent publication US20060069132A1, “Azolecarboxamide herbicides” (priority 2004, published 2006):
# What was measured:
# Italian ryegrass = assay: Test E pre-/postemergence herbicide test; type: in vivo, Lolium multiflorum; details: Preemergence
# Summary of the method: (§1)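 Seeds were planted and treated preemergence with test chemicals in a non-phytotoxic solvent mixture containing surfactant; plants at 2 to 18 cm (1- to 4-leaf stage) received postemergence applications of the same formulation. After 12 to 14 days in a greenhouse, injury was visually rated against untreated controls on a 0 to 100 scale.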
# wild oat = assay: Test C postemergence herbicide test; type: in vivo, Avenafatua
# Description: (§2) At the same time, plants selected from these crop and weed species and also winter barley (Hordeum vulgare L.), blackgrass (Alopecurus myosuroides Huds.), canarygrass (Phalaris minor Retz.), chickweed (Stellaria media (L.) Vill.), downy bromegrass (Bromus tectorum L.), green foxtail (Setaria viridis (L.) Beauv.), Italian ryegrass (Lolium multiflorum Lam.), wheat (Triticum aestivum L.), wild oat (Avenafatua L.) and windgrass (Apera spica-venti (L.) Beauv.) were treated with postemergence applications of some of the test chemicals formulated in the same manner. Plants ranged in height from 2 to 18 cm (1- to 4-leaf stage) for postemergence treatments. Plant species in the flooded paddy test consisted of rice (Oryza sativa), smallflower umbrella sedge (Cyperus difformis L.), ducksalad (Heteranthera limosa (Sw.) Willd.) and barnyardgrass (Echinochloa crus-galli (L.) Beauv.) grown to the 2-leaf stage for testing. Treated plants and controls were maintained in a greenhouse for 12 to 14 days, after which time all species were compared to controls and visually evaluated. Plant response ratings, summarized in Table C, are based on a scale of 0 to 100 where 0 is no effect and 100 is complete control. A dash (-) response means no test result.
# tropical spiderwort = assay: Test E pre-/postemergence herbicide test; type: in vivo, Commelina benghalensis; details: Preemergence
# Summary of the method: as §1
# downy bromegrass = assay: Test C postemergence herbicide test; type: in vivo, Bromus tectorum
# Description: as §2
# canarygrass = assay: Test C postemergence herbicide test; type: in vivo, Phalaris minor
# Description: as §2
# guineagrass = assay: Test E pre-/postemergence herbicide test; type: in vivo, Panicum maximum; details: Preemergence
# Summary of the method: as §1
# green foxtail [1] = assay: Test E pre-/postemergence herbicide test; type: in vivo, Setaria viridis; details: Preemergence
# Summary of the method: as §1
# itchgrass = assay: Test E pre-/postemergence herbicide test; type: in vivo, Rottboellia cochinchinensis; details: Preemergence
# Summary of the method: as §1
# large crabgrass = assay: Test E pre-/postemergence herbicide test; type: in vivo, Digitaria sanguinalis; details: Preemergence
# Summary of the method: as §1
# quackgrass = assay: Test E pre-/postemergence herbicide test; type: in vivo, Elytrigia repens; details: Preemergence
# Summary of the method: as §1
# prickly sida = assay: Test E pre-/postemergence herbicide test; type: in vivo, Sida spinosa; details: Preemergence
# Summary of the method: as §1
# common chickweed = assay: Test E pre-/postemergence herbicide test; type: in vivo, Stellaria media; details: Preemergence
# Summary of the method: as §1
# green foxtail [2] = assay: Test C postemergence herbicide test; type: in vivo, Setaria viridis
# Description: as §2
# mustard = assay: Test E pre-/postemergence herbicide test; type: in vivo, Brassica nigra; details: Preemergence
# Summary of the method: as §1
# [3] = 250 g ai/ha, scale 0 (no effect) to 100 (complete control)
# [4] = 500 g ai/ha, scale 0 (no effect) to 100 (complete control)
# [5] = postemergence, 125 g ai/ha, scale 0 to 100
# [6] = postemergence, 62 g ai/ha, scale 0 to 100
# [7] = Postemergence, 250 g ai/ha, scale 0 to 100, 0 no effect, 100 complete control
# [8] = postemergence, 31 g ai/ha, scale 0 to 100
# [9] = Postemergence, 500 g ai/ha, scale 0 to 100
smiles,measurement,setting,value
CCc1nn(C(C)(C)C)nc1C(=O)Nc1cccc(C(=O)N(C)CC)c1 [Compound 384],"Plant response rating, Ryegrass, Italian","Italian ryegrass; 62 g ai/ha, scale 0 to 100",20
same,"Plant response rating, Ryegrass, Italian","Italian ryegrass; 125 g ai/ha, scale 0 to 100",75
same,"Plant response rating, Ryegrass, Italian",Italian ryegrass; [3],80
same,"Plant response rating, Ryegrass, Italian",Italian ryegrass; [4],95
same,"Plant response rating, Oat, Wild",wild oat; [5],45
same,"Plant response rating, Oat, Wild",wild oat; [6],35
same,"Plant response rating, Spiderwort","tropical spiderwort; 125 g ai/ha, scale 0 to 100",30
same,"Plant response rating, Spiderwort",tropical spiderwort; [3],60
same,"Plant response rating, Spiderwort",tropical spiderwort; [4],95
same,"Plant response rating, Bromegrass, Downy",downy bromegrass; [7],55
same,"Plant response rating, Bromegrass, Downy",downy bromegrass; [5],45
same,"Plant response rating, Bromegrass, Downy",downy bromegrass; [8],30
same,"Plant response rating, Bromegrass, Downy",downy bromegrass; [6],40
same,"Plant response rating, Canarygrass",canarygrass; [7],40
same,"Plant response rating, Canarygrass",canarygrass; [5],35
same,"Plant response rating, Canarygrass",canarygrass; [8],20
same,"Plant response rating, Canarygrass",canarygrass; [6],30
same,"Plant response rating, Guineagrass","guineagrass; 62 g ai/ha, scale 0 to 100",95
same,"Plant response rating, Guineagrass","guineagrass; 125 g ai/ha, scale 0 to 100",95
same,"Plant response rating, Guineagrass",guineagrass; [3],95
same,"Plant response rating, Guineagrass",guineagrass; [4],100
same,"Plant response rating, Foxtail, Green","green foxtail [1]; 62 g ai/ha, scale 0 to 100",10
same,"Plant response rating, Foxtail, Green",green foxtail [1]; [3],40
same,"Plant response rating, Foxtail, Green",green foxtail [1]; [4],95
same,"Plant response rating, Itchgrass","itchgrass; 62 g ai/ha, scale 0 to 100",40
same,"Plant response rating, Itchgrass","itchgrass; 125 g ai/ha, scale 0 to 100",60
same,"Plant response rating, Itchgrass",itchgrass; [3],70
same,"Plant response rating, Itchgrass",itchgrass; [4],85
same,"Plant response rating, Crabgrass, Large","large crabgrass; 62 g ai/ha, scale 0 to 100",90
same,"Plant response rating, Crabgrass, Large","large crabgrass; 125 g ai/ha, scale 0 to 100",100
same,"Plant response rating, Crabgrass, Large",large crabgrass; [3],100
same,"Plant response rating, Crabgrass, Large",large crabgrass; [4],100
same,"Plant response rating, Quackgrass","quackgrass; 62 g ai/ha, scale 0 to 100",50
same,"Plant response rating, Quackgrass","quackgrass; 125 g ai/ha, scale 0 to 100",70
same,"Plant response rating, Quackgrass",quackgrass; [3],85
same,"Plant response rating, Quackgrass",quackgrass; [4],85
same,"Plant response rating, Prickly Sida","prickly sida; 62 g ai/ha, scale 0 to 100",60
same,"Plant response rating, Prickly Sida",prickly sida; [3],60
same,"Plant response rating, Prickly Sida",prickly sida; [4],95
same,"Plant response rating, Chickweed","common chickweed; 62 g ai/ha, scale 0 to 100",75
same,"Plant response rating, Chickweed","common chickweed; 125 g ai/ha, scale 0 to 100",95
same,"Plant response rating, Chickweed",common chickweed; [3],95
same,"Plant response rating, Chickweed",common chickweed; [4],100
same,"Plant response rating, Foxtail, Green",green foxtail [2]; [7],65
same,"Plant response rating, Foxtail, Green",green foxtail [2]; [5],60
same,"Plant response rating, Foxtail, Green",green foxtail [2]; [6],60
same,"Plant response rating, Black Mustard","mustard; 62 g ai/ha, scale 0 to 100",60
same,"Plant response rating, Black Mustard","mustard; 125 g ai/ha, scale 0 to 100",80
same,"Plant response rating, Black Mustard",mustard; [3],85
same,"Plant response rating, Black Mustard",mustard; [4],100
CCOC(=O)c1cccc(NC(=O)c2nn(C(C)(C)CC)nc2CC)c1 [Compound 375],"Plant response rating, Oat, Wild",wild oat; [5],55
same,"Plant response rating, Oat, Wild",wild oat; [6],45
same,"Plant response rating, Bromegrass, Downy",downy bromegrass; [7],60
same,"Plant response rating, Bromegrass, Downy",downy bromegrass; [5],60
same,"Plant response rating, Bromegrass, Downy",downy bromegrass; [8],40
same,"Plant response rating, Bromegrass, Downy",downy bromegrass; [6],60
same,"Plant response rating, Canarygrass",canarygrass; [7],35
same,"Plant response rating, Canarygrass",canarygrass; [5],35
same,"Plant response rating, Canarygrass",canarygrass; [8],30
same,"Plant response rating, Canarygrass",canarygrass; [6],30
same,"Plant response rating, Foxtail, Green",green foxtail [2]; [7],65
same,"Plant response rating, Foxtail, Green",green foxtail [2]; [5],65
same,"Plant response rating, Foxtail, Green",green foxtail [2]; [6],50
CCn1nc(C(C)(C)C)cc1C(=O)Nc1cccc(OC(F)F)c1 [Compound 332],"Oat, Wild plant response rating",wild oat; [9],70
same,"Plant response rating, Oat, Wild",wild oat; [7],70
same,"Plant response rating, Oat, Wild",wild oat; [5],65
same,"Plant response rating, Oat, Wild",wild oat; [6],50
same,"Bromegrass, Downy plant response rating",downy bromegrass; [9],65
same,"Plant response rating, Bromegrass, Downy",downy bromegrass; [7],50
same,"Plant response rating, Bromegrass, Downy",downy bromegrass; [5],40
same,"Plant response rating, Bromegrass, Downy",downy bromegrass; [6],35
same,Canarygrass plant response rating,canarygrass; [9],70
same,"Plant response rating, Canarygrass",canarygrass; [7],60
same,"Plant response rating, Canarygrass",canarygrass; [5],45
same,"Plant response rating, Canarygrass",canarygrass; [6],35
same,"Foxtail, Green plant response rating",green foxtail [2]; [9],70
same,"Plant response rating, Foxtail, Green",green foxtail [2]; [7],50
same,"Plant response rating, Foxtail, Green",green foxtail [2]; [5],40
same,"Plant response rating, Foxtail, Green",green foxtail [2]; [6],35
CCn1nc(C(C)(C)C)cc1C(=O)Nc1cc(C(=S)N(C)C)ccn1 [Compound 334],"Plant response rating, Oat, Wild",wild oat; [7],95
same,"Plant response rating, Oat, Wild",wild oat; [5],75
same,"Plant response rating, Oat, Wild",wild oat; [6],55
same,"Plant response rating, Bromegrass, Downy",downy bromegrass; [7],45
same,"Plant response rating, Bromegrass, Downy",downy bromegrass; [5],35
same,"Plant response rating, Bromegrass, Downy",downy bromegrass; [8],20
same,"Plant response rating, Bromegrass, Downy",downy bromegrass; [6],30
same,"Plant response rating, Canarygrass",canarygrass; [7],45
same,"Plant response rating, Canarygrass",canarygrass; [5],35
same,"Plant response rating, Canarygrass",canarygrass; [8],20
same,"Plant response rating, Canarygrass",canarygrass; [6],25
same,"Plant response rating, Foxtail, Green",green foxtail [2]; [7],45
same,"Plant response rating, Foxtail, Green",green foxtail [2]; [5],35
same,"Plant response rating, Foxtail, Green",green foxtail [2]; [6],35
